Patent US20020035061A1, “COMPOSITIONS AND METHODS FOR TREATING INFECTIONS USING CATIONIC PEPTIDES ALONE OR IN COMBINATION WITH ANTIBIOTICS” (priority 1996, published 2002)
Where two headings read alike, the source gives them in different places.

Key:
Format in all cases: cell-based
E. faecalis = test system: E. faecalis
S. epidermidis = test system: S. epidermidis
E. faecium = test system: E. faecium
P. aeruginosa = test system: P. aeruginosa
S. aureus = test system: S. aureus
S. maltophilia = test system: S. maltophilia
S. marcescens = test system: S. marcescens
A. calcoaceticus = test system: A. calcoaceticus
K. pneumoniae = test system: K. pneumoniae
E. coli = test system: E. coli
E. cloacae = test system: E. cloacae
[1] = test system: inherently resistant microorganisms; assay: microbe, parasite or virus in culture; conditions: P. aeruginosa
bacterial isolates = assay: microbe, parasite or virus in culture; conditions: for Peptide MIC Alone: 2. Ceftriaxone; for FIC: peptide + Ceftriaxone
[2] = test system: microorganisms with acquired resistance; assay: microbe, parasite or virus in culture; conditions: for Peptide MIC Alone: Ceftriaxone section; for FIC: peptide + Ceftriaxone

ILKKWPWWVWRRK [MBI 11F2CN]
MIC (E. faecalis; E. faecalis strain EFS002): 32 µg/mL
MIC (S. epidermidis; S. epidermidis strain SE002): 4 µg/mL
MIC (E. faecium; E. faecium strain EFM002): 4 µg/mL
MIC (P. aeruginosa; P. aeruginosa strain PA005): >128 µg/mL
MIC (S. aureus; S. aureus strain SA012): 4 µg/mL
MIC (S. maltophilia; S. maltophilia strain SMA002): 64 µg/mL
MIC (S. marcescens; S. marcescens strain SMS004): >128 µg/mL
MIC (A. calcoaceticus; A. calcoaceticus strain AC002): 4 µg/mL
MIC (K. pneumoniae; K. pneumoniae strain KP002): 128 µg/mL
MIC (E. coli; E. coli strain ECO002): 8 µg/mL

ILKKWPWWWRK [MBI 11D15CN]
MIC (E. faecalis; E. faecalis strain EFS002): 32 µg/mL
MIC (E. faecium; E. faecium strain EFM003): 4 µg/mL
MIC (S. aureus; S. aureus strain SA009): 8 µg/mL

ILKKWWWPWRK [MBI 11D14CN]
MIC (E. faecalis; E. faecalis strain EFS002): 32 µg/mL
MIC (E. faecium; E. faecium strain EFM003): 1 µg/mL
MIC (S. aureus; S. aureus strain SA009): 4 µg/mL

ILKKYPWYPWRRK [MBI 11A5CN]
MIC (E. faecalis; E. faecalis strain EFS002): 32 µg/mL
MIC (E. faecium; E. faecium strain EFM003): 4 µg/mL
MIC (E. cloacae; E. cloacae strain ECL007): >128 µg/mL
MIC (P. aeruginosa; P. aeruginosa strain PA003): >128 µg/mL
MIC (S. aureus; S. aureus strain SA002): 16 µg/mL
MIC (S. maltophilia; S. maltophilia strain SMA002): >128 µg/mL
MIC (S. marcescens; S. marcescens strain SMS003): >128 µg/mL
MIC (A. calcoaceticus; A. calcoaceticus strain AC001): >128 µg/mL
MIC (K. pneumoniae; K. pneumoniae strain KP001): >128 µg/mL
MIC (E. coli; E. coli strain ECO003): 128 µg/mL

ILKWPWWPWRRK [MBI 11B3CN]
MIC (E. faecalis; E. faecalis strain EFS001): 16 µg/mL
MIC (E. faecium; E. faecium strain EFM001): 8 µg/mL
MIC (E. cloacae; E. cloacae strain ECL007): >128 µg/mL
MIC (P. aeruginosa; P. aeruginosa strain PA003): >128 µg/mL
MIC (S. aureus; S. aureus strain SA010): 4 µg/mL
MIC (S. maltophilia; S. maltophilia strain SMA002): 32 µg/mL
MIC (S. marcescens; S. marcescens strain SMS004): >128 µg/mL
MIC (A. calcoaceticus; A. calcoaceticus strain AC001): 64 µg/mL
MIC (K. pneumoniae; K. pneumoniae strain KP002): 64 µg/mL
MIC (E. coli; E. coli strain ECO002): 16 µg/mL

ILRRWPWWPWRK [MBI 11B2CN]
MIC (E. faecalis; E. faecalis strain EFS004): 8 µg/mL
MIC (E. faecium; E. faecium strain EFM001): 8 µg/mL
MIC (E. cloacae; E. cloacae strain ECL007): >128 µg/mL
MIC (P. aeruginosa; P. aeruginosa strain PA003): >128 µg/mL
MIC (S. aureus; S. aureus strain SA005): 2 µg/mL
MIC (S. maltophilia; S. maltophilia strain SMA002): 64 µg/mL
MIC (S. marcescens; S. marcescens strain SMS004): >128 µg/mL
MIC (A. calcoaceticus; A. calcoaceticus strain AC001): 64 µg/mL
MIC (K. pneumoniae; K. pneumoniae strain KP002): 64 µg/mL
MIC (E. coli; E. coli strain ECO003): 16 µg/mL

PWWPWRRK [MBI 11D3CN]
MIC (E. faecalis; E. faecalis strain EFS002): 32 µg/mL
MIC (E. faecium; E. faecium strain EFM003): 8 µg/mL
MIC (E. cloacae; E. cloacae strain ECL007): >128 µg/mL
MIC (P. aeruginosa; P. aeruginosa strain PA024): >128 µg/mL
MIC (S. aureus; S. aureus strain SA009): 8 µg/mL
MIC (S. maltophilia; S. maltophilia strain SMA001): 64 µg/mL
MIC (S. marcescens; S. marcescens strain SMS004): >128 µg/mL
MIC (A. calcoaceticus; A. calcoaceticus strain AC001): >128 µg/mL
MIC (K. pneumoniae; K. pneumoniae strain KP002): >128 µg/mL
MIC (E. coli; E. coli strain ECO002): 64 µg/mL

WRWWKPKWRWPKW [MBI 11J02CN]
Peptide MIC + Ceftriaxone [1]: 32 µg/mL
Peptide MIC Alone ([1]; Ceftriaxone section): 64 µg/mL
MIC (E. faecalis; E. faecalis EFS001): 4 µg/mL
MIC (E. faecalis; E. faecalis EFS008): 16 µg/mL
MIC (S. epidermidis; S. epidermidis SE010): 2 µg/mL
MIC (E. cloacae; E. cloacae ECL007): 64 µg/mL
Peptide MIC Alone (bacterial isolates; A. baumannii ABI005): 8 µg/mL
Peptide MIC Alone (bacterial isolates; B. cepacia BC003): >128 µg/mL
Peptide MIC Alone (bacterial isolates; E. cloacae ECL014): 32 µg/mL
Peptide MIC Alone (bacterial isolates; E. cloacae ECL015): 32 µg/mL
Peptide MIC Alone (bacterial isolates; P. aeruginosa PA008): 64 µg/mL
Peptide MIC Alone (bacterial isolates; P. aeruginosa PA039): 64 µg/mL
Peptide MIC Alone (bacterial isolates; S. aureus SA025 MRSA): 2 µg/mL
Peptide MIC Alone (bacterial isolates; S. epidermidis SE012): 4 µg/mL
Peptide MIC Alone (bacterial isolates; S. epidermidis SE073): 4 µg/mL
Ceftriaxone MIC + Peptide (bacterial isolates; A. baumannii ABI005): 8 µg/mL
Peptide MIC + Ceftriaxone (bacterial isolates; A. baumannii ABI005): 0.5 µg/mL
Ceftriaxone MIC + Peptide (bacterial isolates; B. cepacia BC003): 4 µg/mL
Peptide MIC + Ceftriaxone (bacterial isolates; B. cepacia BC003): 64 µg/mL
Ceftriaxone MIC + Peptide (bacterial isolates; E. cloacae ECL014): 16 µg/mL
Peptide MIC + Ceftriaxone (bacterial isolates; E. cloacae ECL014): 8 µg/mL
Ceftriaxone MIC + Peptide (bacterial isolates; E. cloacae ECL015): 16 µg/mL
Peptide MIC + Ceftriaxone (bacterial isolates; E. cloacae ECL015): 8 µg/mL
Ceftriaxone MIC + Peptide (bacterial isolates; P. aeruginosa PA008): 0.125 µg/mL
Peptide MIC + Ceftriaxone (bacterial isolates; P. aeruginosa PA008): 32 µg/mL
Ceftriaxone MIC + Peptide (bacterial isolates; P. aeruginosa PA039): 16 µg/mL
Peptide MIC + Ceftriaxone (bacterial isolates; P. aeruginosa PA039): 16 µg/mL
Ceftriaxone MIC + Peptide (bacterial isolates; S. aureus SA025 MRSA): 0.125 µg/mL
Peptide MIC + Ceftriaxone (bacterial isolates; S. aureus SA025 MRSA): 1 µg/mL
Ceftriaxone MIC + Peptide (bacterial isolates; S. epidermidis SE012): 16 µg/mL
Peptide MIC + Ceftriaxone (bacterial isolates; S. epidermidis SE012): 1 µg/mL
Ceftriaxone MIC + Peptide (bacterial isolates; S. epidermidis SE073): 16 µg/mL
Peptide MIC + Ceftriaxone (bacterial isolates; S. epidermidis SE073): 1 µg/mL
FIC (bacterial isolates; A. baumannii ABI005): 0.56
FIC (bacterial isolates; B. cepacia BC003): 0.50
FIC (bacterial isolates; E. cloacae ECL014): 0.38
FIC (bacterial isolates; E. cloacae ECL015): 0.50
FIC (bacterial isolates; P. aeruginosa PA008): 0.50
FIC (bacterial isolates; P. aeruginosa PA039): 0.50
FIC (bacterial isolates; S. aureus SA025 MRSA): 0.52
FIC (bacterial isolates; S. epidermidis SE012): 0.50
FIC (bacterial isolates; S. epidermidis SE073): 0.38
MIC (P. aeruginosa; P. aeruginosa PA004): 32 µg/mL
MIC (S. aureus; S. aureus SA014): 2 µg/mL
MIC (S. aureus; S. aureus SA093): 1 µg/mL
MIC (S. maltophilia; S. maltophilia SMA002): 8 µg/mL
MIC (S. marcescens; S. marcescens SMS003): >128 µg/mL
MIC (A. calcoaceticus; A. calcoaceticus AC002): 4 µg/mL
MIC (K. pneumoniae; K. pneumoniae KP001): 4 µg/mL
Ceftriaxone MIC + Peptide ([2]; A. baumannii ABI005): 8 µg/mL
Peptide MIC + Ceftriaxone ([2]; A. baumannii ABI005): 0.5 µg/mL
Peptide MIC Alone ([2]; A. baumannii ABI005): 8 µg/mL
Ceftriaxone MIC + Peptide ([2]; A. lwoffii ALW007): 4 µg/mL
Peptide MIC + Ceftriaxone ([2]; A. lwoffii ALW007): 2 µg/mL
Peptide MIC Alone ([2]; A. lwoffii ALW007): 4 µg/mL
Ceftriaxone MIC + Peptide ([2]; B. cepacia BC003): 8 µg/mL
Peptide MIC + Ceftriaxone ([2]; B. cepacia BC003): 32 µg/mL
Peptide MIC Alone ([2]; B. cepacia BC003): >128 µg/mL
Ceftriaxone MIC + Peptide ([2]; E. cloacae ECL014): 0.25 µg/mL
Peptide MIC + Ceftriaxone ([2]; E. cloacae ECL014): 16 µg/mL
Peptide MIC Alone ([2]; E. cloacae ECL014): 32 µg/mL
Ceftriaxone MIC + Peptide ([2]; E. cloacae ECL015): 1 µg/mL
Peptide MIC + Ceftriaxone ([2]; E. cloacae ECL015): 16 µg/mL
Peptide MIC Alone ([2]; E. cloacae ECL015): 32 µg/mL
FIC ([2]; A. baumannii ABI005): 0.56
FIC ([2]; A. lwoffii ALW007): 0.75
FIC ([2]; B. cepacia BC003): 0.63
FIC ([2]; E. cloacae ECL014): 0.50
FIC ([2]; E. cloacae ECL015): 0.52
MIC (E. coli; E. coli ECO005): 4 µg/mL
